# Data taken from patent publication US10472395B2, “Cyclic peptide analogs and conjugates thereof” (Sirenas LLC, priority 2015, dated 2019).
# Numbered stars: 1 amine (or outer) side, 2 acyl side, 3 side chain; on linkers, the order of the positions; unused ones are H or OH. Bridge positions count the residues as written; N and C are the ends. Square brackets hold non-standard residues; d marks the D form. Peptide text beside a SMILES is read from it. ξ: configuration not given here. X12 = CC/C=C(\C)[C@@H](O[*:2])[C@@H](C)[C@@H](O)C/C=C(\C)C(=O)[*:1]; X3 = C/C=C(\C)[C@@H](O[*:2])[C@@H](C)[C@@H](O)C/C=C(\C)C(=O)[*:1]; X2 = C/C(=C\CCC[C@@H](O[*:2])C(C)C)C(=O)[*:1]; X7 = C/C(=C\CCC[C@H](O[*:2])C(C)C)C(=O)[*:1]; X1 = C/C(=C\CC[C@@H](C)CO[*:2])C(=O)[*:1]; Hmp(2R,3S) = CC[C@H](C)[C@@H](O)C(=O)O; dNMeF = CN[C@H](Cc1ccccc1)C(=O)O; Ile(3ξ) = CCC(C)[C@H](N)C(=O)O; dHica = CC(C)C[C@@H](O)C(=O)O; dNMeL = CN[C@H](CC(C)C)C(=O)O; NMeA = CN[C@@H](C)C(=O)O; Sar = CNCC(=O)O
# Key:
# [1] = tested on: HCC1954 cells; experiment: Inhibitory response of test compounds against HCC1954 cells (method analogous to BT-474); assay type: cell-based; conditions: Homo sapiens
# Procedure: (§1) BT-474 human mammary gland ductal carcinoma cells were seeded in a clear polystyrene 96-well microculture plate (Corning® Costar® 96-well flat bottom plate, Cat.#3997) in a total volume of 90 μL/well. After 24 hours of incubation in a humidified incubator at 37° C. with 5% CO2 and 95% air, 10 μL of 10×, serially diluted test agents in growth medium were added to each well (10 pt dose response curve, highest concentration 10 μM of test agent). After 72 hours of culture in a humidified incubator at 37° C., in an atmosphere of 5% CO2 and 95% air, the plated cells and Cell Titer-Glo® (Promega G7571) reagents were brought to room temperature to equilibrate for 30 minutes. 100 μL of Cell Titer-Glo® reagent was added to each well. The plate was shaken for two minutes and then left to equilibrate for ten minutes. The media/Cell Titer-Glo® reagent was transferred to a white polystyrene 96-well microculture plate (Corning® Costar® 96-well flat bottom plate, Cat.#3917) before reading luminescence on a Tecan GENios microplate reader.
# (§2) Percent inhibition of cell growth was calculated relative to untreated control wells. The IC50 value for the test agents was determined using Prism 6.05 by curve-fitting of the data using the following four parameter-logistic equation:
# (§3) [formula] where Top is the maximal % of control absorbance, Bottom is the minimal % of control absorbance at the highest agent concentration, Y is the % of control absorbance, X is the agent concentration, IC50 is the concentration of agent that inhibits cell growth by 50% compared to the control cells, and n is the slope of the curve.
# Inhibitory response of test compounds against HCC1954 cells was determined using a method analogous to that used for BT-474 cells.
# [2] = tested on: several cancer cell lines; conditions: Y. Nakao et al., J. Nat. Prod. 2004, 67, 1332-1340; cited from earlier work
# [3] = tested on: BT-474 human mammary gland ductal carcinoma cells; experiment: Inhibitory response of test compounds against BT-474 cells (Cell Titer-Glo, 72 h); assay type: cell-based; conditions: Homo sapiens
# Procedure: as §1, §2, §3
# [4] = tested on: HeLa S3 cells; conditions: K. Suenaga et al., Bioorg. Med. Chem. Lett. 2008, 18, 3902-3905; cited from earlier work
Structure (SMILES),IC50 [1],cytotoxicity against several cancer cell lines [2],IC50 [3],"IC50 ([3]; 72 h, Cell Titer-Glo)",cytotoxicity against HeLa S3 cells [4]
"C/C=C(\C)[C@H]1OC(=O)[C@@H](C)NC(=O)[C@H](C(C)CC)NC(=O)CN(C)C(=O)[C@@H](Cc2ccccc2)N(C)C(=O)[C@H](C)NC(=O)[C@@H](CC(C)C)OC(=O)/C(C)=C/C[C@H](O)[C@@H]1C (stereo partly drawn) [Kulo-2, kulo-2, reference compound]",< 20 nM,potent cytotoxicity,< 20 nM,1.76 nM,
"CC/C=C(\C)[C@H]1OC(=O)[C@H](C)N(C)C(=O)[C@H](C(C)C)NC(=O)CN(C)C(=O)[C@@H](CC(C)C)N(C)C(=O)[C@H](C(C)C)NC(=O)[C@@H]([C@@H](C)CC)OC(=O)/C(C)=C/C[C@H](O)[C@@H]1C [Aurilide, aurilide] ([Hmp(2R,3S)]V[dNMeL][Sar]V[NMeA]; linker N-C via X12)",,,,,potent cytotoxicity
CCC(C)[C@@H]1NC(=O)CN(C)C(=O)[C@@H](Cc2ccccc2)N(C)C(=O)[C@H](C)NC(=O)[C@@H](CC(C)C)OC(=O)/C(C)=C/CCC[C@H](C(C)C)OC(=O)[C@@H](C)NC1=O (stereo partly drawn) [Compound 87] ([dHica]A[dNMeF][Sar][Ile(3ξ)][dA]; linker N-C via X2),200 to 10000 nM,,200 to 10000 nM,,
C/C=C(\C)[C@H]1OC(=O)[C@@H](C)NC(=O)[C@H]([C@H](C)CC)NC(=O)CN(C)C(=O)[C@@H](Cc2ccc(Cl)cc2)N(C)C(=O)[C@H](CCCCNC(=O)OC(C)(C)C)NC(=O)[C@@H](CC(C)C)OC(=O)/C(C)=C/CC[C@@H]1C [Compound 119],< 20 nM,,< 20 nM,,
C/C=C(\C)[C@H]1OC(=O)[C@@H](C)NC(=O)[C@H]([C@H](C)CC)NC(=O)CN(C)C(=O)[C@@H](Cc2ccccc2)N(C)C(=O)[C@H](C)NC(=O)[C@@H](CC(C)C)OC(=O)/C(C)=C/C[C@H](OC(=O)NCCCOCCOCCOCCCN=[N+]=N)[C@@H]1C [Compound 113],< 20 nM,,< 20 nM,,
CCC(C)[C@@H]1NC(=O)CN(C)C(=O)[C@@H](Cc2ccccc2)N(C)C(=O)[C@H](C)NC(=O)[C@@H](CC(C)C)OC(=O)/C(C)=C/CCC[C@@H](C(C)C)OC(=O)[C@@H](C)NC1=O (stereo partly drawn) [Compound 86] ([dHica]A[dNMeF][Sar][Ile(3ξ)][dA]; linker N-C via X7),200 to 10000 nM,,200 to 10000 nM,,
C/C=C(\C)[C@H]1OC(=O)[C@@H](C)NC(=O)[C@H](C(C)CC)NC(=O)CN(C)C(=O)[C@@H](Cc2ccc(Cl)cc2)N(C)C(=O)[C@H](C)NC(=O)[C@@H](CC(C)C)OC(=O)/C(C)=C/C[C@H](O)[C@@H]1C (stereo partly drawn) [Compound 21],< 20 nM,,< 20 nM,,
C/C=C(\C)[C@H]1OC(=O)[C@@H](C)NC(=O)[C@H](C(C)CC)NC(=O)CN(C)C(=O)[C@@H](Cc2ccccc2)N(C)C(=O)[C@H](C)NC(=O)[C@@H](CC(C)C)NC(=O)/C(C)=C/C[C@H](O)[C@@H]1C (stereo partly drawn) [Compound 63] ([dL]A[dNMeF][Sar][Ile(3ξ)][dA]; linker N-C via X3),20 to 200 nM,,< 20 nM,,
CCC(C)[C@@H]1NC(=O)CN(C)C(=O)[C@@H](Cc2ccccc2)N(C)C(=O)[C@H](C)NC(=O)[C@@H](CC(C)C)OC(=O)/C(C)=C/CC[C@@H](C)COC(=O)[C@@H](C)NC1=O (stereo partly drawn) [Compound 92] ([dHica]A[dNMeF][Sar][Ile(3ξ)][dA]; linker N-C via X1),200 to 10000 nM,,200 to 10000 nM,,
C/C=C(\C)[C@H]1OC(=O)[C@@H](C)NC(=O)[C@H]([C@H](C)CC)NC(=O)CN(C)C(=O)[C@@H](Cc2ccccc2)N(C)C(=O)[C@H](C)NC(=O)[C@@H](CC(C)C)OC(=O)/C(C)=C/C[C@H](OC(=O)N(C)CCN(C)C=O)[C@@H]1C [Compound 114],20 to 200 nM,,< 20 nM,,
C/C=C(\C)[C@H]1OC(=O)[C@@H](C)NC(=O)[C@H](C(C)CC)NC(=O)CN(C)C(=O)[C@@H](Cc2ccccc2)N(C)C(=O)[C@H](C)NC(=O)[C@@H](CC(C)C)OC(=O)/C(C)=C/C[C@H](OCSC)[C@@H]1C (stereo partly drawn) [Compound 94],< 20 nM,,< 20 nM,,
C/C=C(\C)[C@H]1OC(=O)[C@@H](C)NC(=O)[C@H]([C@H](C)CC)NC(=O)CN(C)C(=O)[C@@H](Cc2ccccc2)N(C)C(=O)[C@H](C)NC(=O)[C@@H](CC(C)C)OC(=O)/C(C)=C/C[C@H](OC(=O)N(C)CCNC)[C@@H]1C [Compound 75],< 20 nM,,< 20 nM,,
C/C=C(\C)[C@H]1OC(=O)[C@@H](C)NC(=O)[C@H](C(C)CC)NC(=O)CN(C)C(=O)[C@@H](Cc2c[nH]c3ccccc23)N(C)C(=O)[C@H](C)NC(=O)[C@@H](CC(C)C)OC(=O)/C(C)=C/C[C@H](O)[C@@H]1C (stereo partly drawn) [Compound 125],20 to 200 nM,,< 20 nM,,
